Experimental data from patent US20250057928A1, “VACCINE COMPOSITION FOR INDUCING ANTI-IL-23 ANTIBODY” (OSAKA UNIVERSITY, priority 2021, published 2025).
Where no end group is shown, it is not given here.

Tests used:
[1] = system: recombinant mouse IL-23 protein (rmIL-23); test: Binding of mouse antiserum to rmIL-23, ELISA; conditions: antiserum of BALB/c mice
Procedure: […] […] Specifically, a 96-well plate immobilized with an epitope peptide dissolved at 10 μg/mL in carbonate buffer was blocked with 5% skim milk/PBS, and then serum serially diluted with 5% skim milk/PBS was added, and the mixture was left standing at 4° C. overnight. After washing the wells with PBS-T, HRP-labeled anti-mouse IgG antibody (GE Healthcare) diluted with 5% skim milk/PBS was added and the mixture was shaken at room temperature for 3 hr. After washing the wells with PBS-T, TMB solution (SIGMA) was added, the wells were allowed to stand for 30 min in the dark, the reaction was stopped by adding 0.5M H2SO4, and the absorbance at 450 nm was measured using a plate reader. The serum dilution rate that gave 1/2 (OD=1.75) of the maximum absorbance was defined as the antibody titer, and the geometric mean titer: GMT was calculated from the individual values. Binding to IL-23 protein was measured by the ELISA method in the same manner as the antibody titer, using rmIL-23 (Antibodies-online GmbH) as the solid-phased antigen and goat serum for blocking.
AJP001 conjugated peptide (SEQ ID NO: 2) was dissolved in physiological saline and intradermally administered to BALB/c mice (female, 6-week-old, N=6) at 1 mg/body 3 times at two-week intervals, and blood was collected every 2 weeks until 8 weeks. […]

epitope peptide = test: Antibody titer (GMT) of serum of hairless rats, ELISA; assay type: in vivo, rat; conditions: 1 mg/body intradermal 3 times at two-week intervals, serum at 6 weeks
Procedure: AJP001 conjugated peptide having one of the B cell epitope sequences of SEQ ID NOs: 1-5 was dissolved in physiological saline and intradermally administered twice to BALB/c mice (female, 6-week-old, N=5-6) at 0.5 mg/body at 2-week intervals. Blood was collected before administration and 5 weeks after the initial administration, and the antibody titer against each AJP001 conjugated peptide and the binding ability to recombinant mouse IL-23 protein (rmIL-23) were measured by the ELISA method. Specifically, a 96-well plate immobilized with an epitope peptide dissolved at 10 μg/mL in carbonate buffer was blocked with 5% skim milk/PBS, and then serum serially diluted with 5% skim milk/PBS was added, and the mixture was left standing at 4° C. overnight. […] After washing the wells with PBS-T, TMB solution (SIGMA) was added, the wells were allowed to stand for 30 min in the dark, the reaction was stopped by adding 0.5M H2SO4, and the absorbance at 450 nm was measured using a plate reader. The serum dilution rate that gave 1/2 (OD=1.75) of the maximum absorbance was defined as the antibody titer, and the geometric mean titer: GMT was calculated from the individual values. Binding to IL-23 protein was measured by the ELISA method in the same manner as the antibody titer, using rmIL-23 (Antibodies-online GmbH) as the solid-phased antigen and goat serum for blocking. […]

rhIL-23 = test: Binding of monkey antiserum to rhIL-23, ELISA; set-up: species or system human; conditions: monkey antiserum 6 weeks after the initial administration
Procedure: AJP001 conjugated peptide (SEQ ID NO: 6) was dissolved in physiological saline and subcutaneously administered to Macaca fascicularis (female, […], N=4) at 5 mg/body 3 times at two-week intervals. Blood was collected every two weeks from the first day of administration until week 16, and the antibody titer (GMT) and binding to IL-23 of the serum at each time point were measured by the ELISA method (same method as in Example 1; the secondary antibody used was Anti-Monkey IgG (Abcam)). In FIG. 7, “*” means P<0.05.

Q: For “SEQ ID NO 2: AJP001-Ahx-B cell epitope peptide conjugate; epitope SSSQQWQR (mouse 152-159) (not fully specified (N-terminus); listed as Mus musculus)”, which “binding to rmIL-23” value ([1]; 0.5 mg/body twice, 5 weeks after initial administration) is on record?
A: Its value is “confirmed”.

Q: And the “binding ability to rmIL-23” value ([1]; 1 mg/body 3 times, 6 weeks)?
A: The value was “contained antibodies that bind to rmIL-23”.

Q: And the “antibody titer (GMT)” value (epitope peptide)?
A: The value was “increase”.

Q: How did the “binding ability to rhIL-23” value (rhIL-23) turn out when “SEQ ID NO 6: AJP001-Ahx-B cell epitope peptide conjugate; epitope SPSQPWQR (human 151-158) (not fully specified (N-terminus); listed as Homo sapiens)” was run?
A: The value was “showed binding ability”.
